Reference: patent publication US20240199623A1 (ILDONG PHARMACEUTICAL CO., LTD., priority 2020, published 2024)

Biological target: human wild type-CFTR (Homo sapiens, UniProt P13569)
Assay: Cell-based YFP assay
Parameters: expressed in transfected cells; host or cells: CHO-K1 (Chinese hamster ovary)
Conditions: CHO-K1 cells expressing human wild type-CFTR and YFP-H148Q/I152L; forskolin 20 μM = 100% activity; read-out: Cell-based YFP Assay (EC50) Concentration Range
Experimental: Forskolin (Tocris cat. #1099), Dimethyl sulfoxide (Sigma cat. #D4540), FLUO star Omega microplate reader (BMG Labtech, Ortenberg, Germany), MARS Data Analysis Software (BMG Labtech), GraphPad Prism 5 (GraphPad Software, Inc.) Chinese hamster ovary (CHO-K1) cells expressing human wild type-CFTR and halide sensor YFP-H148Q/I152L were constructed and grown in Dulbecco's modified Eagle's medium (DMEM) supplemented with 10% FBS, 2 mM glutamine, 100 units/ml penicillin and 100 μg/ml streptomycin. Chinese hamster ovary (CHO-K1) cells expressing human wild type-CFTR and halide sensor YFP-H148Q/I152L were seeded in 96-well microplate with 2×10^4 cells/well and incubated in 37° C., 48 hours. Then, each well was washed 3 times with PBS and 100 μL PBS was added in each well. […] YFP fluorescence signal affected by I^− ion influx through CFTR channel was measured in 37° C., FLUO star Omega microplate reader according to the following steps: • i) basal 2 seconds; • ii) 140 mM I^− solution 100 μL addition to each well; • iii) YFP fluorescence signal measurement start after 6 seconds; and • iv) following 14 seconds signal detection in every 0.4 seconds periods. […] Experiments were performed in triplicates and the data was averaged. EC50 values were calculated with MARS Data Analysis Software (BMG Labtech) and GraphPad Prism 5.

human wild type-CFTR, sequence (P13569 whole entry): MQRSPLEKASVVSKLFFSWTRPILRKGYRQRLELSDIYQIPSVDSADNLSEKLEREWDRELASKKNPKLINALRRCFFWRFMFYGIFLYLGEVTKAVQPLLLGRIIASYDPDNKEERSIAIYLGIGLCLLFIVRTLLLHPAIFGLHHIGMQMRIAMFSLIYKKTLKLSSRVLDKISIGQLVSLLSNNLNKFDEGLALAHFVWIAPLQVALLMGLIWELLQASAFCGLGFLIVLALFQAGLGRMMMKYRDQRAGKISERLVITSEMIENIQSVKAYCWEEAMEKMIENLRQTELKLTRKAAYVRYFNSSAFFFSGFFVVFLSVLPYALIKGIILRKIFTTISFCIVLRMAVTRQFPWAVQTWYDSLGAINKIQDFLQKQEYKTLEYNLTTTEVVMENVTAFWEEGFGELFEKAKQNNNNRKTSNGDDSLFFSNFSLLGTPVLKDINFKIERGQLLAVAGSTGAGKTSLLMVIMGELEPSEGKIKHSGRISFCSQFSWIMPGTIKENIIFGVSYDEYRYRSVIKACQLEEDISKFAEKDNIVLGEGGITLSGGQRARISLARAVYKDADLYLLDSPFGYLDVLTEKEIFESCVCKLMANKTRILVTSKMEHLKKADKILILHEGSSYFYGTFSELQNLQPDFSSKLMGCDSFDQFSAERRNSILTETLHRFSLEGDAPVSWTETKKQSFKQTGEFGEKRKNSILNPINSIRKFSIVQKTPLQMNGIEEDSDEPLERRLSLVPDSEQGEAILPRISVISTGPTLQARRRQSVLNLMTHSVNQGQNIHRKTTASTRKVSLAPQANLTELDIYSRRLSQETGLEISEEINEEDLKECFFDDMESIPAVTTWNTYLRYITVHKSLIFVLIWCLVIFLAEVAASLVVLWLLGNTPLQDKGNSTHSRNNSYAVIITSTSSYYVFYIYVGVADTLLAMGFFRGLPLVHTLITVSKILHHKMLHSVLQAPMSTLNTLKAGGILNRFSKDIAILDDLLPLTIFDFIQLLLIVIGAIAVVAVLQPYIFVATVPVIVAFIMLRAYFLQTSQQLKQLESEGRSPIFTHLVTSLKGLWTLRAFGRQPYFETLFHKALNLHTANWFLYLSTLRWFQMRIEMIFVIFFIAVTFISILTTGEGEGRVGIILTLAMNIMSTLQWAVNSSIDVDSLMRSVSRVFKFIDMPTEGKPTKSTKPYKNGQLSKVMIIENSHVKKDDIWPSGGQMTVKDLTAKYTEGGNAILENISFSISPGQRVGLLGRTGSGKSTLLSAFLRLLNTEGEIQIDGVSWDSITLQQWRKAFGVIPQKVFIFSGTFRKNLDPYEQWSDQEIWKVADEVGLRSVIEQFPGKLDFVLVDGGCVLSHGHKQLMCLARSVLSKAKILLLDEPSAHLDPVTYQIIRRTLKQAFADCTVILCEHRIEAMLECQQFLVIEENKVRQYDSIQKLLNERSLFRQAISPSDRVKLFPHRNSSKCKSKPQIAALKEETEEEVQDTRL

EC50 [µM] | SMILES
< 0.2 | COc1ccc(-c2ccnc3cc(C(=O)Nc4ccc(C(=O)N5CCN(C)CC5)cc4C)nn23)cc1OC [Compound 128, 7-(3,4-dimethoxyphenyl)-N-(2-methyl-4-(4-methylpiperazine-1-carbonyl)phenyl)pyrazolo [1,5-a]pyrimidine-2-carboxamide]
≥ 2 | Cc1cccc(-c2ccnc3cc(C(=O)Nc4ccc(N5CCOCC5)cn4)nn23)c1 [Compound 306, N-(5-morpholinopyridin-2-yl)-7-(m-tolyl)pyrazolo[1,5-a] pyrimidine-2-carboxamide]
≥ 2 | COc1ccc(-c2ccnc3cc(C(=O)NC45CC(C(=O)N6CCN(C)CC6)(C4)C5)nn23)cc1OC [Compound 123, 7-(3,4-dimethoxyphenyl)-N-(3-(4-methylpiperazine-1-carbonyl)bicyclo[1.1.1]pentan-1-yl) pyrazolo[1,5-a]pyrimidine-2-carboxamide]
≥ 2 | CCCCCCCCCCOC(=O)c1ccc(NC(=O)c2cc3nccc(-c4ccc(OC)c(OC)c4)n3n2)cc1 [Compound 337, decyl 4-(7-(3,4-dimethoxy-phenyl)pyrazolo[1,5-a]pyrimidine-2-carboxamido)benzoate]
< 0.2 | COc1ccc(-c2ccnc3cc(C(=O)N4C[C@H](C)N(C(=O)c5ccccc5)[C@@H](C)C4)nn23)cc1OC [Compound 364, ((3S,5S)-4-benzoyl-3,5-dimethylpiperazin-1-yl) (7-(3,4-dimethoxyphenyl)pyrazolo[1,5-a]pyrimidin-2-yl)methanone]
< 0.2 | COc1ccc(-c2ccnc3cc(C(=O)Nc4ccc(N(C)C)cn4)nn23)cc1OC [Compound 312, 7-(3,4-dimethoxyphenyl)-N-(5-(dimethylamino)pyridin-2-yl)pyrazolo [1,5-a]pyrimidine-2-carboxamide]
< 0.2 | COc1ccc(-c2ccnc3cc(C(=O)Nc4ccc(C(=O)NCCCN5CCOCC5)cc4)nn23)cc1OC [Compound 173, 7-(3,4-dimethoxyphenyl)-N-(4-((3-morpholinopropyl)carbamoyl)phenyl)pyrazolo [1,5-a]pyrimidine-2-carboxamide]
≥ 2 | COc1ccc(-c2ccnc3cc(C(=O)NC4CCC(N(C)C)CC4)nn23)cc1OC (stereo not shown) [Compound 27, 7-(3,4-dimethoxyphenyl)-N-(4-(dimethylamino)cyclohexyl) pyrazolo[1,5-a]pyrimidine-2-carboxamide]
0.2 to 2 | COc1ccc(-c2ccnc3cc(C(=O)N4CCc5cc(C(=O)N6CCOCC6)ccc54)nn23)cc1OC [Compound 251, (7-(3,4-dimethoxyphenyl)pyrazolo[1,5-a]pyrimidin-2-yl)(5-(morpholine-4-carbonyl)indolin-1-yl) methanone]
≥ 2 | COc1ccc(-c2ccnc3cc(C(=O)N4CCCc5cc(C(=O)N6CCN(C)CC6)ccc54)nn23)cc1OC [Compound 235, (7-(3,4-dimethoxyphenyl)pyrazolo[1,5-a]pyrimidin-2-yl)(6-(4-methylpiperazine-1-carbonyl)-3,4-dihydroquinolin-1(2H)-yl)methanone]
< 0.2 | COc1ccc(-c2ccnc3cc(C(=O)N4CCN(C(=O)c5cccnc5)[C@@H](C)C4)nn23)cc1OC [Compound 382, (S)-(7-(3,4-dimethoxy-phenyl)pyrazolo[1,5-a]pyrimidin-2-yl) (3-methyl-4-nicotinoylpiperazin-1-yl)methanone]
≥ 2 | COc1ccc(-c2ccnc3cc(C(=O)Nc4ccc(C(=O)N5CCOCC5)c(C)c4)nn23)cc1OC [Compound 214, 7-(3,4-dimethoxyphenyl)-N-(3-methyl-4-(morpholine-4-carbonyl)phenyl)pyrazolo[1,5-a]pyrimidine-2-carboxamide]
0.2 to 2 | O=C(Nc1ccc(O)cc1)c1cc2nccc(-c3ccc(O)c(O)c3)n2n1 [Compound 38, 7-(3,4-dihydroxyphenyl)-N-(4-hydroxyphenyl)pyrazolo [1,5-a]pyrimidine-2-carboxamide]
≥ 2 | COc1ccc(-c2ccnc3cc(NC(=O)Nc4ccc(C(=O)O)cc4)nn23)cc1OC [Compound 107, 4-(3-(7-(3,4-dimethoxyphenyl)pyrazolo[1,5-a]pyrimidin-2-yl)ureido)benzoic acid]
≥ 2 | COc1ccc(-c2ccnc3cc(C(=O)Nc4ccc(C(=O)NCCCN(C)C)cc4)nn23)cc1OC [Compound 220, 7-(3,4-dimethoxyphenyl)-N-(4-((3-(dimethylamino)propyl)carbamoyl)phenyl) pyrazolo[1,5-a]pyrimidine-2-carboxamide]
≥ 2 | COc1ccc(-c2ccnc3cc(C(=O)N(C)c4ccc(C(=O)O)cc4)nn23)cc1OC [Compound 234, 4-(7-(3,4-dimethoxyphenyl)-N-methylpyrazolo[1,5-a]pyrimidine-2-carboxamido)benzoic acid]
≥ 2 | COc1ccc(-c2ccnc3cc(C(=O)N4CCN(C(C)C)CC4)nn23)cc1OC [Compound 179, (7-(3,4-dimethoxyphenyl)pyrazolo[1,5-a]pyrimidin-2-yl)(4-isopropylpiperazin-1-yl)methanone]
0.2 to 2 | COc1ccc(-c2ccnc3cc(C(=O)N4CCN(C(=O)c5ncccn5)[C@@H](C)C4)nn23)cc1OC [Compound 383, (S)-(7-(3,4-dimethoxy-phenyl)pyrazolo[1,5-a]pyrimidin-2-yl)(3-methyl-4-(pyrimidine-2-carbonyl)piperazin-1-yl)methanone]
0.2 to 2 | COc1ccc(-c2ccnc3cc(C(=O)Nc4ccc(C(=O)NCCO)cc4)nn23)cc1OC [Compound 53, 7-(3,4-dimethoxyphenyl)-N-(4-((2-hydroxyethyl)carbamoyl)phenyl)pyrazolo[1,5-a] pyrimidine-2-carboxamide]
0.2 to 2 | COc1ccc(-c2ccnc3cc(C(=O)N4CCN(Cc5ccccc5)CC4)nn23)cc1OC [Compound 154, (4-benzylpiperazin-1-yl) (7-(3,4-dimethoxyphenyl)pyrazolo [1,5-a]pyrimidin-2-yl)methanone]
0.2 to 2 | COc1ccc(-c2ccnc3cc(C(=O)Nc4ccc(C(=O)N5CCN(C)[C@@H](C)C5)cc4)nn23)cc1OC [Compound 195, (S)-7-(3,4-dimethoxyphenyl)-N-(4-(3,4-dimethylpiperazine-1-carbonyl)phenyl)pyrazolo [1,5-a]pyrimidine-2-carboxamide]
0.2 to 2 | COc1ccc(-c2ccnc3cc(C(=O)N4CCN(C(=O)c5ccccc5Cl)[C@@H](C)C4)nn23)cc1OC [Compound 260, (S)-(4-(2-chlorobenzoyl)-3-methylpiperazin-1-yl) (7-(3,4-dimethoxyphenyl)pyrazolo[1,5-a]pyrimidin-2-yl)methanone]
< 0.2 | CCCOC(=O)c1ccc(NC(=O)c2cc3nccc(-c4ccc(OC)c(OC)c4)n3n2)cc1 [Compound 335, propyl 4-(7-(3,4-dimethoxyphenyl)pyrazolo [1,5-a]pyrimidine-2-carboxamido)benzoate]
< 0.2 | CCOC(=O)c1ccc(NC(=O)c2cc3nccc(-c4ccc(OC)c(OC)c4)n3n2)cc1 [Compound 334, ethyl 4-(7-(3,4-dimethoxyphenyl)pyrazolo[1,5-a]pyrimidine-2-carboxamido)benzoate]

SMILES | EC50 [µM]
CCCCOc1ccc(NC(=O)c2cc3nccc(-c4ccc(OC)c(OC)c4)n3n2)cc1 [Compound 229, N-(4-butoxyphenyl)-7-(3,4-dimethoxyphenyl)pyrazolo [1,5-a]pyrimidine-2-carboxamide] | < 0.2
